Measured values reported in patent US8158589B2, “Peptides with the capacity to bind to transforming growth factor β1 (TGF-β1)” (Proyecto Biomedicine Cima, S.L., priority 2003, dated 2012).
Ends that are not written are not given here.

Columns and labels:
TGF-β1 [1] = biological target: T1, TGF-β1 (Homo sapiens, UniProt P01137); assay type: cell-based; set-up: purchased Roche; host or cells: added to Mv-1-Lu (CCL-64) mink lung epithelial cells; details: for inhibition of the biological activity of TGF-β1 in vitro (in words): Mv-1-Lu proliferation
Description: The cell line Mv-1-Lu (CCL-64, […], Virginia, USA) derives from mink pulmonary epithelium, grows as a monolayer, and responds to the presence of TGF-β1 by decreasing its proliferation (FIG. 5). Thus, the peptide-mediated inhibition of this cytokine is able to restore cell growth and reflects the capacity of the different peptides to inhibit the biological activity of TGF-β1 in vitro. The peptides tested were obtained by peptide synthesis, in accordance to conventional procedures (Merrifield R B. J Am Chem Soc 1963; 85:2149-2154; Atherton E et al. J Chem Soc Perkin Trans 1981; 1:538-546).
The Mv-1-Lu cells are cultured to confluence in complete medium [RPMI-1640 supplemented with L-glutamine, sodium pyruvate, antibiotics and 10% fetal bovine serum (FBS)] at 37° C. and in 5% CO2 in 162 cm^2 bottles (Costar Corporation, CA, USA). Following trypsinization, the cells are cultured in 200 μl of complete medium in 96-well plates at an initial density of 5,000 cells/well at 37° C. and in 5% CO2 during 6 hours to ensure adhesion. Then, different concentrations of the peptides to be tested are added, starting from 200 μg/ml, and following 200 pg/ml of TGF-β1 (Roche) are added. After 12 hours of incubation 1 μCi of methyl-3H-thymidine (Amersham Life Science, Buckinghamshire, United Kingdom) is added per well in 25 μl of clean medium (RPMI-1640). The plate is incubated for 12 more hours under the same conditions. Finally, the cells are harvested (Filtermate 196 Harvester, Packard), transferring the tritiated thymidine, incorporated in the course of DNA synthesis, to plates (UniFilter-96 GF/C®, Perkin Elmer). Following the addition of scintillation fluid, the radioactivity was quantified using a scintillation counter (Top Count, Microplate Scintillation Counter, Packard). As positive and negative control, use was made of the incorporation of tritiated thymidine in the absence and presence of TGF-β1, respectively. The inhibition of TGF-β1 activity in this test was calculated based on the following formula: […]
The negative control represents the incorporation of tritiated thymidine in the presence of TGF-β1 but in the absence of peptide, whereas the positive control refers to the incorporation of tritiated thymidine in the absence of TGF-β1 and peptide. Thus, according to the capacity of the peptides to revert the cytokine repressor effect on Mv-1-Lu cell line proliferation, percentage of TGF-β1 biological activity inhibition by the peptides can be measured (Table 2).
Comparisons have been made of the activity of truncated peptides (derived from peptide sequence SEQ ID NO: 17) versus the complete sequence, in terms of the capacity to revert the suppressor effect of TGF-β1 upon proliferation of the Mv-1-Lu cell line. To this effect, and to determine the minimum sequence of peptide SEQ ID NO: 17 capable of inhibiting the biological activity of TGF-β1 in vitro, truncated versions of this peptide were synthesized, with truncation at the N-terminal end, C-terminal end or in both ends of the molecule. The peptides tested were obtained by peptide synthesis following conventional procedures (Merrifield R B. J Am Chem Soc 1963; 85:2149-2154; Atherton E et al. J Chem Soc Perkin Trans 1981; 1:538-546). Following the same methodology described in Example 2, the activity of truncated peptides versus the complete sequence of the peptide SEQ ID NO: 17 was quantified, in terms of a proliferation assay of the Mv-1-Lu cell line.

TGF-β1 [2] = biological target: T2, TGF-β1 (Mus musculus, UniProt P04202); experiment: Model of acute liver damage induced by CCl4, type I collagen mRNA by real time PCR; assay type: in vivo, mice; set-up: key to % Inhibition of type I collagen mRNA induction (in vivo TGF-β1 biological activity): Neg: negative; details: for % Inhibition of type I collagen mRNA induction (in vivo TGF-β1 biological activity): Balb/C mice, oral CCl4, 50 μg of peptide every 24 h, sacrifice after 72 hours; for inhibition of the biological activity of TGF-β1 in vivo (in words): acute liver damage, type I collagen mRNA
T2 construct: from tissue; host or cells: liver of Balb/C mice (CCl4 model); lung of C57BL/6 mice (bleomycin model)
Experimental: Acute liver damage generates a cascade of effects and physiological responses, including elevations in the concentrations of TGF-β1. This elevation is responsible for the expression of the type I collagen gene, among others. In this model of acute liver damage, female Balb/C mice weighing 25 to 30 g, were orally administered a dose of 2 μl of CCl4 (per gram of body weight) dissolved in an equivalent volume of corn oil (volumetric ratio of 1:1). The control group received an equivalent volume of corn oil only, and the treated groups received (following the single oral administration of CCl4 in corn oil) 50 μg of peptide in 500 μl of 1% physiological saline solution in DMSO (dimethyl sulfoxide) every 24 h. After 72 hours all animals were sacrificed, and the liver samples were processed. To evaluate mRNA expression, liver tissue was frozen in liquid nitrogen and stored at −80° C. until further use. Other liver tissue samples were stored in OCT® or Tissue-Tek® (Sakura Finetek B.V.) and processed in the same way as the samples used for mRNA studies. Other liver samples were fixed in 10% buffered formalin solution, embedded in paraffin and processed for their histological evaluation. The amount of mRNA encoding type I collagen was quantified in all groups using a quantitative polymerase chain reaction (PCR) technique. […] The capacity of the testing peptides to block the acute damage, as assessed by measuring the levels of induced type I collagen mRNA was quantified by real time PCR. […] The peptides tested were obtained by conventional solid peptide synthesis procedures (Merrifield R B. J Am Chem Soc 1963; 85:2149-2154; Atherton E et al. J Chem Soc Perkin Trans 1981; 1:538-546).

TGF-β1 [3] = biological target: T1, TGF-β1; experiment: Biopanning of phage-displayed 15-aa peptide library on biotinylated TGF-β1, number of colonies per sequence; assay type: binding; set-up: purchased Roche; host or cells: added to Mv-1-Lu (CCL-64) mink lung epithelial cells; details: clones carrying the sequence among 108 colonies after the last biopanning cycle; approximate indication of affinity for TGF-β1
Description: These libraries comprise a plurality of filamentous bacteriophages (M13), each one containing a peptide genetically fused to a protein of the virus envelope—in this case bound to the N-terminal end of envelope protein pIII (FIG. 1). […] In the phage libraries, the sequence encoding the peptide originates from a sequence degenerated in each one of the 15 positions with the 20 natural amino acids, thus allowing the presentation of 1.1×10^12 possible sequences of 15 amino acids in different phages. The physical ratio, 1:1, between the peptide sequence and the DNA encoding it within the bacteriophage allows the selection (from a broad range of variants) of those sequences that specifically bind to TGF-β1. This process is carried out via an in vitro selection protocol known as “biopanning”.
This technique involves incubating a set of phages representative (to practical effects) of all the 15-aa variants, in a plate blocked with streptavidin (10 μg/ml in 0.1 M NaHCO3, during 2 h at room temperature) to which biotinylated TGF-β1 is added. […] TGF-β1 contacts the peptides carried by the phages at a concentration of […]. After about 12 hours incubation, unbound phages are eliminated by 5 washings with PBS/Tween (phosphate buffered saline/polyoxyalkylene derivatives of sorbitan fatty acid esters). […] The eluted phages are then amplified by infection in a bacterial strain (E. coli). The process is repeated three cycles so that an enrichment in the content of phages which specifically bind, and with high affinity, to TGF-β1 is achieved (FIG. 3). […] Thus, the phages selected in each cycle show more and more affinity for TGF-β1. At the end of the process, phages which have been selected for their affinity for TGF-β1, are sequenced by using primers, after isolation by tetracycline resistance of the genetically modified phages after infecting E. coli cells. […] The number of times which a sequence is repeated, corresponding to a 15 amino acids peptide carried by each clone, from the total of sequenced colonies is an indication of the degree of relative affinity of said 15 amino acids sequence for TGF-β1.
The selection of clones, obtained from the “biopanning”, was carried out by selection of the bacterial colonies infected with the phages in the presence of a bacterial antibiotic; the bacteria resistance is acquired by a tetracycline resistance gene encoded by the phage genome. Thus, only those colonies infected with bacteriophages are able to grow. This means that each colony contains the genome of only one phage coding for only one peptide presented in its surface.
A total number of 108 colonies of phage-infected bacteria were obtained from the last selection cycle of “biopanning”. The sequence of the regions coding for the peptides present in the pIII protein was carried out using primers identified with SEQ ID NO: 23. This table also reflects the number of colonies (clones) carrying said sequences.
The number of clones (colonies) of each sequence gives an approximate indication of the degree of affinity of the peptide for TGF-β1, that is, the more colonies the more binding affinity.

T2 sequence (P04202 279-390 limits assumed): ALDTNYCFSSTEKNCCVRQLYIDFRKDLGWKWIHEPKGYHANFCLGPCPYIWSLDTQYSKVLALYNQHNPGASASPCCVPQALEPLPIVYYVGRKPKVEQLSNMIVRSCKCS
T1 sequence (P01137 279-390 limits assumed, species assumed): as the sequence (P04202 279-390 limits assumed) above, with S75A counted along it

% Inhibition of in vitro TGF-β1 biological activity (TGF-β1 [1]) [%] | No. colonies (TGF-β1 [3]) | inhibition of the biological activity of TGF-β1 in vitro (in words) (TGF-β1 [1]) | Sequence | % Inhibition of type I collagen mRNA induction (in vivo TGF-β1 biological activity) (TGF-β1 [2]) | inhibition of the biological activity of TGF-β1 in vivo (in words) (TGF-β1 [2])
9.4 ± 0.4 | – | – | RIWFIPRSSWYERA [SEQ ID NO: 24, RIWFIPRSSWYERA] | – | –
– | 2 | inhibitory capacity | SGRRHLHRHHIFSLP [SEQ ID NO: 14] | 49.84 ± 24% | inhibitory capacity
2.7 ± 1.8 | – | – | WFIPRSSWYERA [SEQ ID NO: 29, WFIPRSSWYERA] | – | –
3.8 ± 1.6 | – | – | PRSSWYERA [SEQ ID NO: 32, PRSSWYERA] | – | –
−0.3 ± 3.0 | – | – | FIPRSSWYERA [SEQ ID NO: 30, FIPRSSWYERA] | – | –
– | 6 | inhibitory capacity | RKWFLQHRRMPVSVL [SEQ ID NO: 13] | 32.70% | inhibitory capacity
3.1 ± 0.9 | – | – | WFIPRSSWY [SEQ ID NO: 28, WFIPRSSWY] | – | –
– | 1 | only inhibitory activity | MPLSRYWWLFSHRPR [SEQ ID NO: 18] | Neg | –
– | 4 | inhibitory capacity | WHKYFLRRPLSVRTR [SEQ ID NO: 11] | 39.34 ± 21.9% | inhibitory capacity
34.4 ± 7.9 | – | – | KRIWFIPRSSWY [SEQ ID NO: 34, KRIWFIPRSSWY] | – | capable of inhibiting the expression of collagen type I mRNA
– | 18 | inhibitory capacity | RLAHSHRHRSHVALT [SEQ ID NO: 4] | 51.30 ± 15.3% | inhibitory capacity
6.2 ± 2.5 | – | – | KRIWFIPRS [SEQ ID NO: 36, KRIWFIPRS] | – | –
1.4 ± 2.5 | – | – | IWFIPRSSWYE [SEQ ID NO: 27, IWFIPRSSWYE] | – | –
3.4 ± 1.4 | – | – | IPRSSWYERA [SEQ ID NO: 31, IPRSSWYERA] | – | –
6.0 ± 0.4 | – | – | KRIWFIPRSS [SEQ ID NO: 35, KRIWFIPRSS] | – | –
4.5 ± 1.8 | – | – | IWFIPRSSWYERA [SEQ ID NO: 26, IWFIPRSSWYERA] | – | –
6.2 ± 1.5 | – | – | RIWFIPRSSWYER [SEQ ID NO: 25, RIWFIPRSSWYER] | – | –
– | 41 | only inhibitory activity | RFFTRFPWHYHASRL [SEQ ID NO: 3] | 2.09% | much less active
– | 12 | inhibitory capacity | PPYHRFWRGHRHAVQ [SEQ ID NO: 6] | 74.94 ± 25.3% | inhibitory capacity
31.4 ± 7.0 | – | inhibitory activity | KRIWFIPRSSWYER [SEQ ID NO: 33, KRIWFIPRSSWYER] | – | –
